# Results from patent publication US20260184725A1, “CYCLIC 2-AMINOPYRIMIDINE COMPOUND AND PHARMACEUTICAL COMPOSITION AND USE THEREOF” (SHANGHAI INSTITUTE OF ORGANIC CHEMISTRY, CHINESE ACADEMY OF …, priority 2023, published 2026).
# How the values were obtained:
# Assay type in all cases: biochemical
# [1] = target: T1, EGFR^19del/T790M/C797S (Homo sapiens, UniProt P00533, T790M/C797S, form not given); assay: ELISA kinase activity inhibition, EGFR 19del/T790M/C797S; details: ATP 5 μM, read-out: The average IC50 value (nM) for inhibiting the activity of different tyrosine kinases, EGFR^19del/T790M/C797S
# T1 construct: fused on or other part: Probably a GST tag on the cytoplasmic fragment, as in the vendor's product
# Protocol: (§1) EGFR (WT) is a wild-type epidermal growth factor receptor.
# (§2) Enzyme-Linked Immunosorbent Assay (ELISA) was used to detect the inhibitory effect of compounds on kinase activity.
# (§3) The main experimental steps were as follows: Enzyme reaction substrate Poly (Glu, Tyr)4:1 was diluted with potassium free PBS (10 mM sodium phosphate buffer, 150 mM NaCl, pH 7.2-7.4) to 20 μg/mL, and reacted at 37° C. for 12 hours to 16 hours to coat the enzyme-linked immunosorbent assay plate. ATP solution (final concentration 5 μM) diluted with reaction buffer (50 mM HEPES pH 7.4, 50 mM MgCl2, 0.5 mM MnCl2, 0.2 mM Na3VO4, 1 mM DTT) was added to each well, followed by the test compound or solvent control, then the kinase reaction was initiated and the plate was shaken at 37° C. for 1 hour. The plate was washed three times with T-PBS, then added antibody PY99. The plate was shaken at 37° C. for 0.5 hours. After washing the plate with T-PBS, added horseradish peroxidase-labeled IgG and shaken at 37° C. for 0.5 hours. After washing the plate again, added 2 mg/mL of OPD colorimetric solution and incubated at 25° C. in the dark for 1 minutes to 10 minutes. […] The IC50 values were obtained from the inhibition curve analysis.
# [2] = target: T2, EGFR^WT (Homo sapiens, UniProt P00533); assay: ELISA kinase activity inhibition, wild-type EGFR; details: ATP 5 μM, read-out: The average IC50 value (nM) for inhibiting the activity of different tyrosine kinases, EGFR^WT
# T2 construct: purchased Eurofins
# Protocol: as §1, §2, §3
# [3] = target: EGFR^L858R/T790M/C797S (Homo sapiens, UniProt P00533, C797S/L858R/T790M); assay: ELISA kinase activity inhibition, EGFR L858R/T790M/C797S; details: ATP 5 μM, read-out: The average IC50 value (nM) for inhibiting the activity of different tyrosine kinases, EGFR^L858R/T790M/C797S
# Protocol: as §2, §3
# T1 sequence (P00533 with tags, fused parts or gaps DEL746-750/T790M/C797S, form open): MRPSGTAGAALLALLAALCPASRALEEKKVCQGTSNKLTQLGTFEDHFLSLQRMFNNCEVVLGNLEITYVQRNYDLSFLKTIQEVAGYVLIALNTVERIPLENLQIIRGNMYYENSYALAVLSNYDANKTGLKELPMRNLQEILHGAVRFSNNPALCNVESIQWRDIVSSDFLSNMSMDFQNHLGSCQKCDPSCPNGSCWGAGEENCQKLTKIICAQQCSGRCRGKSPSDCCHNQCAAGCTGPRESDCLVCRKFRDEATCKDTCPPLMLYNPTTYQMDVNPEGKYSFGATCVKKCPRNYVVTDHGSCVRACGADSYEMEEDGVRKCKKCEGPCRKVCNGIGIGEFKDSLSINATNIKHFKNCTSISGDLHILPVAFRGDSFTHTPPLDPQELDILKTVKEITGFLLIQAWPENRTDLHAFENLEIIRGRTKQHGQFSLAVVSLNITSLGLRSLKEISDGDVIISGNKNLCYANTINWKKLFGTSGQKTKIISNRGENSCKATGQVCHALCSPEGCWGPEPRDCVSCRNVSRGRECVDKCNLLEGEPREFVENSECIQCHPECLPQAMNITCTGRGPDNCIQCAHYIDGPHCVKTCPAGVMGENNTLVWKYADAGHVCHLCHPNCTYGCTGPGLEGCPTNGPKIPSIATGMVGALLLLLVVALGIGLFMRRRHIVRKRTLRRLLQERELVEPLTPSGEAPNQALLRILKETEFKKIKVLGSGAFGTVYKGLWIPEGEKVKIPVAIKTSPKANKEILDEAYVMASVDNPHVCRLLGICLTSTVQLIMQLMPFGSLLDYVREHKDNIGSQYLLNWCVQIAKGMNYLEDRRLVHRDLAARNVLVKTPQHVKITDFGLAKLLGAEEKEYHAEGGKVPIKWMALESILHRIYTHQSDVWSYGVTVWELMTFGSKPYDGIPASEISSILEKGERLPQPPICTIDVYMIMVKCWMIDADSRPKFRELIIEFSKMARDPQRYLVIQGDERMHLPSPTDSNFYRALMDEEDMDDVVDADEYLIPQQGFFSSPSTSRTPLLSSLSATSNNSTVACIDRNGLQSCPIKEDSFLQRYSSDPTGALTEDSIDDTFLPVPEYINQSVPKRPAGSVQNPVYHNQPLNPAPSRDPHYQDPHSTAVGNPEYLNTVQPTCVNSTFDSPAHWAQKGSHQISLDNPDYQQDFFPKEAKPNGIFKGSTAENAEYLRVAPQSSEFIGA
# T2 sequence (P00533 25-1210): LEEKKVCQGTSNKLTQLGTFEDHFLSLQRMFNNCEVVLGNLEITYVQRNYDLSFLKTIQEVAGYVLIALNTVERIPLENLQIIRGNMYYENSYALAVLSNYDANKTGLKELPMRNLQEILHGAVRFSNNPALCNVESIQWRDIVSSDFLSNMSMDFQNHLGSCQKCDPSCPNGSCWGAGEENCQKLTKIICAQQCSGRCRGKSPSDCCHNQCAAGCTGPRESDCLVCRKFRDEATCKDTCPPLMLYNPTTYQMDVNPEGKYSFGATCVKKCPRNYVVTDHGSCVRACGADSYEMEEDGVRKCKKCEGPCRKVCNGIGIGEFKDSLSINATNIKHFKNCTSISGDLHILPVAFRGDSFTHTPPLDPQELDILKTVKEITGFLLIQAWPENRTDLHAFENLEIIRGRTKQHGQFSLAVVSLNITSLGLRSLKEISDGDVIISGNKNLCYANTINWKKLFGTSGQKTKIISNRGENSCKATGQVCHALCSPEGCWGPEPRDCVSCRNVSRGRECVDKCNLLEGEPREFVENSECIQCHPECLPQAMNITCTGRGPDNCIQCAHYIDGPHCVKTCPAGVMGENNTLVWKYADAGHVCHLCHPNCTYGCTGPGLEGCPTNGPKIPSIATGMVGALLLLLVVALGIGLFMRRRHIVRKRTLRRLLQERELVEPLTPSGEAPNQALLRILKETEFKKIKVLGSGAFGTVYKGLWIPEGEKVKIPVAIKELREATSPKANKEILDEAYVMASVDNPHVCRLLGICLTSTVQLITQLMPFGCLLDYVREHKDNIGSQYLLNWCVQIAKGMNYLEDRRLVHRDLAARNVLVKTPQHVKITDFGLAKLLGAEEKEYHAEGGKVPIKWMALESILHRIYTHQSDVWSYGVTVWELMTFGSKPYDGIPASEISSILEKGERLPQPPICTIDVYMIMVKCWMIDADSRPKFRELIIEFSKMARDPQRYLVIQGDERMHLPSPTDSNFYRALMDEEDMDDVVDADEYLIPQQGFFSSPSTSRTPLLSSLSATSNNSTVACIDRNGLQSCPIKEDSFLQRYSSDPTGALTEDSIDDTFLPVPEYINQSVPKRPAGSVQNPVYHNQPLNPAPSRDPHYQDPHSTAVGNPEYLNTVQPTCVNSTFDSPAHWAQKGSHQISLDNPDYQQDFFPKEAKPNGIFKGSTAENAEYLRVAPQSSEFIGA
# EGFR^L858R/T790M/C797S, sequence (P00533 25-1210 T790M/C797S/L858R): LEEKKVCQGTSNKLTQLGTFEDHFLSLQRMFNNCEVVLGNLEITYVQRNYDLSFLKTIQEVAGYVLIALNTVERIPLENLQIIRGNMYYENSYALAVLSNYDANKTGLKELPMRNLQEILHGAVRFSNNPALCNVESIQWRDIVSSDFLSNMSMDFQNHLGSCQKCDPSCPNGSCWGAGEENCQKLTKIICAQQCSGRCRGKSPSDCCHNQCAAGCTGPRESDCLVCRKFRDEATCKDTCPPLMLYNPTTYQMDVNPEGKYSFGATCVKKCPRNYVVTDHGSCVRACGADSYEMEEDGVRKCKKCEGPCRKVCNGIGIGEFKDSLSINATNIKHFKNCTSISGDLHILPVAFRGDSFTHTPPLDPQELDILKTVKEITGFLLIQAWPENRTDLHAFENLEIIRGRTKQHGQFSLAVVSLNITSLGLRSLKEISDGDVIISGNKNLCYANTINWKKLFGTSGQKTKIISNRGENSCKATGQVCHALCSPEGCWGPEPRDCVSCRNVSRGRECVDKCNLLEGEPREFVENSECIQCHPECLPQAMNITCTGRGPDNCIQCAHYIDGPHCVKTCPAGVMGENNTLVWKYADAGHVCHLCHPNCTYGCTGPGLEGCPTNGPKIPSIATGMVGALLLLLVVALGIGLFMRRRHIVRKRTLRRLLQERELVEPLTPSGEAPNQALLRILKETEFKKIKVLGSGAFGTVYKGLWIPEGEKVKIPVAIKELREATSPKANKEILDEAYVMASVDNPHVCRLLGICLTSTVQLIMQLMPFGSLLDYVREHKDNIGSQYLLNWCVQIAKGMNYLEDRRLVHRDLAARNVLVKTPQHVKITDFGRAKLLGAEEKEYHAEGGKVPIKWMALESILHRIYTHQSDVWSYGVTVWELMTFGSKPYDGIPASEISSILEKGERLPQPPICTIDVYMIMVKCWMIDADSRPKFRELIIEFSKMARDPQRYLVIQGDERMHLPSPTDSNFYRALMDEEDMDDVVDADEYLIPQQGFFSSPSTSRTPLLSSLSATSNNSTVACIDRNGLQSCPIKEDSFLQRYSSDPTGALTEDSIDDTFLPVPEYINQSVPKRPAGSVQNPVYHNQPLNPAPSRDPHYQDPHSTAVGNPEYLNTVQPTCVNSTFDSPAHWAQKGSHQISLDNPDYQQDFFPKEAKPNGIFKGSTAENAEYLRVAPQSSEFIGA
IC50 [1],IC50 [2],IC50 [3],Structure (SMILES)
33 nM,> 1000 nM,–,"CCS(=O)(=O)n1cc2c3ccc(cc31)OCCCn1ccc(n1)-c1cc(c(C3CC3)cc1N1CCOCC1)Nc1nccc-2n1 [FBH-3-66, (Z)-4^6-cyclopropyl-1^1-(ethylsulfonyl)-4^4-morpholino-1^1H,5^1H-9-oxa-3-aza-1(3,6)-indole-2(4,2)-pyrimidine-5(4,1)-pyrazol-4(1,3)-benzenacyclononaphane]"
2.9 nM,898 nM,1.4 nM,"CCS(=O)(=O)n1cc2c3ccc(cc31)OCCCn1cc(cn1)-c1cc(c(OC)cc1N1CCN(C)CC1)Nc1nccc-2n1 [HC9592, (Z)-1^1-ethylsulfonyl-4^6-methoxy-4^4-(4-methylpiperazin-1-yl)-1^1H,5^1H-9-oxa-3-aza-1(3,6)-indole-2(4,2)-pyrimidine-5(4,1) pyrazole-4(1,3)-benzenacyclononaphane]"
8.2 nM,> 1000 nM,–,"CCS(=O)(=O)n1cc2c3ccc(cc31)OCCCn1ccc(n1)-c1cc(c(C(C)C)cc1N1CCOCC1)Nc1nccc-2n1 [FBH-3-48, (Z)-1^1-(ethylsulfonyl)-4^6-isopropyl-4^4-morpholino-1^1H,5^1H-9-oxa-3-aza-1(3,6)-indole-2(4,2)-pyrimidine-5(4,1)-pyrazole-4(1,3)-benzenacyclononaphane]"
29 nM,> 1000 nM,69.7 nM,"CCS(=O)(=O)n1cc2c3ccc(cc31)OCCCn1cc(cn1)-c1cc(cc(C=C(C)C)c1N1CCOCC1)Nc1ncc(Cl)c-2n1 [HC9003, 2^5-Chloro-1^1-ethylsulfonyl-4^4-morpholino-4^5-2-methylpropan-1-en-1-yl-1^1H,5^1H-9-oxa-3-aza-1(3,6)-indole-2(4,2)-pyrimidine-5(4,1)-pyrazole-4(1,3)-benzenacyclononaphane]"
82.3 nM,> 1000 nM,183 nM,"CCS(=O)(=O)n1cc2c3ccc(cc31)OCCCn1cc(cn1)-c1cc(cc(C3CCCC3)c1N1CCOCC1)Nc1ncc(Cl)c-2n1 [HC9001, 2^5-chloro-4^5-cyclopentyl-1^1-ethylsulfonyl-4^4-morpholino-1^1H,5^1H-9-oxa-3-aza-1(3,6)-indole-2(4,2)-pyrimidin-5(4,1)-pyrazol-4(1,3)-benzenacyclononaphane]"
35.1 nM,154 nM,35.1 nM,"CCS(=O)(=O)n1cc2c3ccc(cc31)OCCCn1cc(cn1)-c1cc(c(OC)cc1N1CCOCC1)Nc1ncc(Cl)c-2n1 [HC9284, 2^5-Chloro-1^1-ethylsulfonyl-4^6-methoxy-4^4-morpholin-1^1H,5^1H-9-oxa-3-aza-1(3,6)-indole-2(4,2)-pyrimidine-5(4,1)-pyrazole-4(1,3)-benzenacyclononaphane]"
30.5 nM,> 1000 nM,30.5 nM,"CCS(=O)(=O)n1cc2c3ccc(cc31)OCC(C)Cn1cc(cn1)-c1cc(ccc1N1CCOCC1)Nc1ncc(Cl)c-2n1 (centres unmarked) [HC9281, 2^5-chloro-1^1-ethylsulfonyl-7-methyl-4^4-morpholino-1^1H, 5^1H-9-oxa-3-aza-1(3,6)-indole-2(4,2)-pyrimidine-5(4,1)-pyrazole-4(1,3)-benzenacyclononaphane]"
45.8 nM,> 1000 nM,45.8 nM,"CCS(=O)(=O)n1cc2c3ccc(cc31)OCC1(CC1)Cn1cc(cn1)-c1cc(ccc1N1CCOCC1)Nc1ncc(Cl)c-2n1 [HC9282, (Z)-5′-Chloro-1′(Ethylsulfonyl)-4′-morpholino spiro [Cyclopropane-1,7′-9-oxa-3-aza-1(3,6)-indole-2(4,2)-pyrimidine-5(4,1)-pyrazolol-4(1,3)-benzenacyclononaphane]]"
> 1000 nM,> 1000 nM,> 1000 nM,"CCS(=O)(=O)n1cc2c3ccc(cc31)OCCCn1cc(cn1)-c1cc(cc(CCC(C)(C)C)c1N1CCOCC1)Nc1ncc(Cl)c-2n1 [HC90042, 2^5-chloro-4^5-(E)-3,3-dimethylbutyl)-1^1-ethylsulfonyl-4^4-morpholin-1^1H,5^1H-9-oxa-3-aza-1(3,6)-indole-2(4,2)-pyrimidin-5(4,1)-pyrazolol-4 (1,3)-benzenacyclononaphane]"
–,> 1000 nM,159 nM,"CCS(=O)(=O)n1cc2c3ccc(cc31)OCCCn1ccc(n1)-c1cc(c(C(F)(F)F)cc1N1CCOCC1)Nc1nccc-2n1 [FBH-3-92, (Z)-1^1-(ethylsulfonyl)-4^4-morpholinyl-4^6-(trifluoromethyl)-1^1H,5^1H-9-oxa-3-aza-1(3,6)-indole-2(4,2)-pyrimidine-5(4,1)-pyrazole-4(1,3)-benzenacyclononaphane]"
–,146 nM,57.8 nM,"CCS(=O)(=O)n1cc2c3ccc(cc31)OCCCn1cc(cn1)-c1cc(c(OC)cc1N1CCOC(C)C1)Nc1nccc-2n1 (centres unmarked) [WQX-2-43, (Z)-1^1-(Ethylsulfonyl)-4^6-methoxy-4^4-(2-methylmorpholinyl)-1^1H,5^1H-9-oxa-3-aza-1(3,6)-indol-2(4,2)-pyrimidin-5(4,1)-pyrazol-4(1,3)-benzocyclononane]"
267 nM,> 1000 nM,–,"CCS(=O)(=O)n1cc2c3ccc(cc31)OCCCn1ccc(n1)-c1cc(c(OC(C)C)cc1N1CCOCC1)Nc1nccc-2n1 [FBH-3-84, (Z)-1^1-(ethylsulfonyl)-4^6-isopropoxy-4^4-morpholinyl-1^1H,5^1H-9-oxa-3-aza-1(3,6)-indole-2(4,2)-pyrimidin-5(4,1)-pyrazol-4(1,3)-benzocyclononaphthalene]"
129 nM,> 1000 nM,167 nM,"CCS(=O)(=O)n1cc2c3ccc(cc31)OCCCn1cc(cn1)-c1cc(c(C)cc1N1CCOCC1)Nc1ncc(Cl)c-2n1 [HC916, 2^5-chloro-1^1-ethylsulfonyl-4^6-methyl-4^4-morpholino-1^1H,5^1H-9-oxa-3-aza-1(3,6)-indole-2(4,2)-pyrimidin-5(4,1)-pyrazol-4(1,3)-benzenacyclononaphane]"
6.8 nM,> 1000 nM,–,"Cc1cc(N2CCOCC2)c2cc1Nc1ncc(Cl)c(n1)-c1cn(C)c3cc(ccc13)OCCCn1cc-2cn1 [HC8991, 2^5-Chloro-1^1,4^6-dimethyl-4^4-morpholino-1^1H,5^1H-9-oxa-3-aza-1(3,6)-Indole-2(4,2)-Pyrimidin-5(4,1)-Pyrazolol-4(1,3)-benzenacyclononaphane]"
–,> 1000 nM,147 nM,"CCS(=O)(=O)n1cc2c3ccc(cc31)OCCCn1ccc(n1)-c1cc(c(OC)cc1N1CCOCC1)Nc1nccc-2n1 [FBH-4-6, (E)-1^1-(ethylsulfonyl)-4^6-methoxy-4^4-morpholinyl-1^1H,5^1H-9-oxa-3-aza-1(3,6)-indole-2(4,2)-pyrimidine-5(3,1)-pyrazole-4(1,3)-benzocyclononaphthalene]"
192 nM,> 1000 nM,343 nM,"CCS(=O)(=O)n1cc2c3ccc(cc31)OCCCn1cc(cn1)-c1cc(cc(CC(C)C)c1N1CCOCC1)Nc1ncc(Cl)c-2n1 [HC90032, 2^5-chloro-1^1-ethylsulfonyl-4^4-morpholino-4^5-2-methylpropyl-1^1H,5^1H-9-oxa-3-aza-1(3,6)-indole-2(4,2)-pyrimidin-5(4,1)-pyrazol-4(1,3)-benzenacyclononaphane]"
–,189 nM,98.5 nM,"CCS(=O)(=O)n1cc2c3ccc(cc31)OCCCn1ccc(n1)-c1cc(c(OC3CC3)cc1N1CCOCC1)Nc1nccc-2n1 [FBH-4-24, (Z)-4^6-cyclopropoxy-1^1-(ethylsulfonyl)-4^4-morpholinyl-1^1H,5^1H-9-oxa-3-aza-1(3,6)-indole-2(4,2)-pyrimidine-5(4,1)-pyrazole-4(1,3)-benzocyclononaphthalene]"
33 nM,> 1000 nM,63.3 nM,"CCS(=O)(=O)n1cc2c3ccc(cc31)OCC1(CC1)Cn1cc(cn1)-c1cc(c(OC)cc1N1CCOCC1)Nc1nccc-2n1 [WQX-1-87, (Z)-1′-(ethylsulfonyl)-6′-methoxy-4′-morpholino spiro[cyclopropane-7′-9-oxa-3-aza-1(3,6)-indole-2(4,2)-pyrimidin-5(4,1)-pyrazol-4(1,3)-benzenacyclononaphane]]"
–,> 1000 nM,135 nM,"CCS(=O)(=O)n1cc2c3ccc(cc31)OCCCn1ccc(n1)-c1cc(c(OC(F)(F)F)cc1N1CCOCC1)Nc1nccc-2n1 [FBH-4-48, (Z)-1^1-(ethylsulfonyl)-4^4-morpholinyl-4^6-(trifluoromethoxy)-1^1H,5^1H-9-oxa-3-aza-1(3,6)-indole-2(4,2)-pyrimidine-5(4,1)-pyrazole-4(1,3)-benzocyclononaphthalene]"
–,255 nM,102 nM,"CCS(=O)(=O)n1cc2c3ccc(cc31)OCCCn1cc(cn1)-c1cc(c(OC)cc1N1CCOCC1)Nc1ncc(F)c-2n1 [WQX-2-79, (Z)-1^1-(ethylsulfonyl)-2^5-fluoro-4^6-methoxy-4^4-morpholinyl-1^1H,5^1H-9-oxa-3-aza-1(3,6)-indole-2(4,2)-pyrimidin-5(4,1)-pyrazol-4(1,3)-benzenacyclononaphane]"
